These results are taken from patent US9493466B2, “Treatment of cancer with TOR kinase inhibitors” (Signal Pharmaceuticals, LLC, priority 2011, dated 2016).

One assay has as its system NCI-H929 tumor. The assay can be described thus: Human plasma cell myeloma (NCI-H929) study. Type of assay: in vivo, SCID mice. The settings on record: FIG. 19. From the text: Human Plasma Cell Myeloma (NCI-H929) Study. Female SCID mice (Fox Chase SCID®, CB17/Icr-Prkce^scid, Charles River) were 8 weeks old at the beginning of the study. The animals were fed ad libitum water (reverse osmosis, 1 ppm Cl) and NIH 31 Modified and Irradiated Lab Diet® consisting of 18.0% crude protein, 5.0% crude fat, and 5.0% crude fiber. […]
The NCI-H929 tumor cells used for implantation were harvested during log phase growth and resuspended at a concentration of 5×10^7 cells/mL in 50% Matrigel (BD Biosciences). […] Tumor size, in mm^3, was calculated from: […]
Compound 1 was administered via oral gavage (p.o.) once daily for twenty-eight days (qd×28). Treatment efficacy was determined from the calculated tumor volumes on Day 12. MTV(n), the median tumor volume for the number of animals, n, evaluable on the day of analysis, was determined for each group. Percent tumor growth inhibition (% TGI) was defined as the difference between the MTV of the control group and the MTV of the drug-treated group, expressed as a percentage of the MTV of the control group: […]
Each animal was to be euthanized when its neoplasm reached the endpoint volume (2000 mm^3). For each animal whose tumor reached the endpoint volume, the time to endpoint (TTE) was calculated by the following equation: […]

For a further assay, the system named is MDA-MB-361. The assay can be described thus: Growth inhibition assay for breast cancer. Type of assay: cell-based. To be noted: MDA-MB-361 (Luminal, Her2+), 96 hours. From the text:
(§1) Growth Inhibition Assay for Breast Cancer (BC) (Compound 1). All breast cancer cell lines were maintained and tested in appropriate culture media. The seeding density for each cell line was optimized to ensure assay linearity in 384-well plates.
(§2) Increasing concentrations of Compound 1 were spotted via an acoustic dispenser (EDC ATS-100) into an empty 384-well plate. Compound 1 was spotted in a 10-point serial dilution fashion (3-fold dilution) in duplicate within the plate. The dimethyl sulfoxide (DMSO) concentration was kept constant for a final assay concentration of 0.1% DMSO. Plates were replicated for use against different cell lines and testing periods. After compound plate replication, all plates were sealed (Agilent ThermoLoc) and stored at −20° C. for up to 1 month. When ready for testing, plates were removed from the freezer, thawed, and unsealed just prior to the addition of the test cell.
(§3) Prior to testing, cells were grown and expanded in culture flasks to provide sufficient amounts of starting material. Cells were then diluted to their desired densities and added directly to the Compound 1-spotted 384-well plates. Cells were allowed to grow for 96 hours at 37° C./5% CO2. At the time of setup (t0), initial cell number was assessed via a viability assay (Cell Titer-Glo) and read for luminescence. After 96 hours, cell viability of Compound 1-treated cells was assessed via Cell Titer-Glo and read for luminescence.
(§4) Cell lines were assayed for growth inhibition by Compound 1 for at least two independent tests. All data was normalized and represented as a percentage of the DMSO-treated control cells. […] The potency of Compound 1 in different subtypes of breast cancer cell lines is shown in FIG. 7A, while the correlation of Compound 1 sensitivity to ER, HER, PIK3CA, and TP53 status is shown in FIG. 7B.

A further assay deals with MDA-MB-231. The assay can be described thus: Growth inhibition assay for breast cancer. Type of assay: cell-based. The settings on record: MDA-MB-231 (Basal, TN), 96 hours.
Source text: as §1, §2, §3, §4

The subject of the next assay is HCC70. The assay can be described thus: Growth inhibition assay for breast cancer. Type of assay: cell-based. The settings on record: HCC70 (Basal, TN), 96 hours.
Source text: as §1, §2, §3, §4

The subject of the next assay is SK-BR-3. Put plainly: Growth inhibition assay for breast cancer. To be noted: SK-BR-3 (Luminal, Her2+), 96 hours. Type of assay: cell-based.
Source text: as §1, §2, §3, §4

The subject of a further assay is KPL-1. Put plainly: Growth inhibition assay for breast cancer. Type of assay: cell-based. The settings on record: KPL-1 (Luminal, ER+), 96 hours.
Source text: as §1, §2, §3, §4

The subject of a further assay is MCF7. The assay can be described thus: Growth inhibition assay for breast cancer. Type of assay: cell-based. The settings on record: MCF7 (Luminal, ER+), 96 hours.
Source text: as §1, §2, §3, §4

The test system of a further assay is HCC1954. The assay can be described thus: Growth inhibition assay for breast cancer. Type of assay: cell-based. To be noted: HCC1954 (Basal, Her2+), 96 hours.
Source text: as §1, §2, §3, §4

The next assay concerns HCC202. The assay can be described thus: Growth inhibition assay for breast cancer. To be noted: HCC202 (Luminal, Her2+), 96 hours. Type of assay: cell-based.
Source text: as §1, §2, §3, §4

The test system of another assay is CAMA-1. The assay can be described thus: Growth inhibition assay for breast cancer. Type of assay: cell-based. To be noted: CAMA-1 (Luminal, ER+), 96 hours.
Source text: as §1, §2, §3, §4

For a further assay, the system named is CAL-51. The assay can be described thus: Growth inhibition assay for breast cancer. Type of assay: cell-based. To be noted: CAL-51 (Basal, TN), 96 hours.
Source text: as §1, §2, §3, §4

A further assay relates to HCC2157. Put plainly: Growth inhibition assay for breast cancer. Type of assay: cell-based. To be noted: HCC2157 (Basal, TN), 96 hours.
Source text: as §1, §2, §3, §4

The next assay concerns MDA-MB-415. The assay can be described thus: Growth inhibition assay for breast cancer. Type of assay: cell-based. To be noted: MDA-MB-415 (Luminal, ER+), 96 hours.
Source text: as §1, §2, §3, §4

The term GI50 denotes the concentration giving 50% growth inhibition. Low values mean greater sensitivity of the cells, high ones lower sensitivity of the cells.

Regarding `CO[C@H]1CC[C@H](N2C(=O)CNc3ncc(-c4ccc(C(C)(C)O)nc4)nc32)CC1` [Compound 1, 7-(6-(2-hydroxypropan-2-yl)pyridin-3-yl)-1-((1r,4r)-4-methoxycyclohexyl)-3,4-dihydropyrazino-[2,3-b]pyrazin-2(1H)-one], the tumor growth delay entry with NCI-H929 tumor (3 mg/kg and 10 mg/kg p.o. qd×28) is on record as “Significant tumor growth delay”. Further, in the assay with NCI-H929 tumor (10 mg/kg p.o. qd×28), the tumor growth inhibition entry is “Significant tumor growth inhibition”. The 50% growth inhibitory concentration (GI50) in the assay on MDA-MB-361 was determined as 0.0657 µM; with MDA-MB-231 it was 0.711 µM; in the assay with HCC70 it was 0.172 µM; in the assay with SK-BR-3 it was 0.121 µM; in the assay on KPL-1, 0.0973 µM; in the assay on MCF7, 0.181 µM. The GI50 was found to be 0.197 µM in the assay on HCC1954; 0.0201 µM in the assay with HCC202; 0.146 µM with CAMA-1; 0.119 µM in the assay with CAL-51; 0.399 µM with HCC2157; 0.169 µM in the assay on MDA-MB-415.
